Results from US8609708B2 (Human BioMolecular Research Institute, priority 2003, dated 2013).
Read-outs that look alike come from different tables or passages of the source.

What was measured:
CYP3A4 = CYP3A4 (Homo sapiens (Human), UniProt P08684); assay: in vitro
Procedure: (§1) To gain insight into the selectivity of the synthetic compounds, nicotine, nicotine related alkaloids and nicotine metabolites for inhibition of other CYPs, we examined the major CYP present in human liver (i.e., CYP 3A4). […] A typical incubation mixture ([…] ), 0.5 mM NADP^+, 2.0 mM G6P, 1 U of G6P dehydrogenase, […] inhibitor was added last as to minimize interaction with the protein. After mixing on ice, the reaction was initiated by the addition of substrate and incubated at 37° C. with shaking in air. Organic extracts were injected onto a Hitachi L-7100 system equipped with a Hitachi L-7400 UV detector. Separations were done with an Altex Ultrasphere ODS (4.6 mm×250 mm, 5 μm) column. The analytes were eluted with an isocratic solvent system consisting of water/acetonitrile/methanol (30:10:60, v/v/v) at a flow rate of 1.0 mL/min. […] Quantification of substrate and metabolite was determined from peak areas of the chromatogram and comparison with standard curves. IC50 values were determined as described below.
(§2) To measure CYP3A4 activity, testosterone 6-hydroxylation was determined.

CYP2E1 = CYP2E1 (Homo sapiens (Human), UniProt P05181); assay: CYP2E1 Vivid blue substrate O-dealkylation inhibition; format: biochemical
CYP2B6 = CYP2B6 (Homo sapiens (Human), UniProt P20813); assay: CYP2B6 Vivid blue substrate O-dealkylation inhibition; format: biochemical
CYP2C9 = CYP2C9 (Homo sapiens (Human), UniProt P11712); assay: CYP2C9 Vivid blue substrate O-dealkylation inhibition; format: biochemical
CYP2C19 = CYP2C19 (Homo sapiens (Human), UniProt P33261); assay: CYP2C19 Vivid blue substrate O-dealkylation inhibition; format: biochemical
CYP2D6 = CYP2D6 (Homo sapiens (Human), UniProt P10635); assay: CYP2D6 Vivid blue substrate O-dealkylation inhibition; format: biochemical
human CYP2A6 [1] = target: T1, human CYP2A6 (Homo sapiens (Human), UniProt P11509)
P450 2A6dH = P450 2A6dH (Homo sapiens (Human), UniProt P11509, INS494HHHH)
Procedure: Subsequently, test compound (in 100% ethanol, 10 μM) was added to both the cuvettes. The maximal ethanol concentration used was 2%. The difference spectra were obtained after the system reached equilibrium (3 min). All spectra were recorded at 25° C.

[2] = Mouse liver microsome stability assay; conditions: mouse, mouse liver microsomes, pH 7.4
Procedure: The residue was reconstituted in methanol (200 μL), centrifuged at 13,000 rpm for 5 min and the supernatant was analyzed by high-performance liquid chromatography with an Axxi-chrom (straight-phase) silica column (4.6 mm×250 mm, 5 μm) or with a Supelco (reverse-phase) HS F5 pentafluorophenyl column (4.6 mm×250 mm, 5 μm).

[3] = Human liver microsome stability assay; conditions: human, human liver microsomes, pH 7.4
[4] = target: CYP3A4 relative to CYP2A6 (Homo sapiens (Human), UniProt P08684); assay: in vitro; conditions: human, pH 7.5
Procedure: as §1, §2

[5] = target: CYP2E1 relative to CYP2A6 (Homo sapiens (Human), UniProt P05181); assay: CYP2E1 Vivid blue substrate O-dealkylation inhibition; format: biochemical
[6] = target: CYP2B6 relative to CYP2A6 (Homo sapiens (Human), UniProt P20813); assay: CYP2B6 Vivid blue substrate O-dealkylation inhibition; format: biochemical; conditions: human
[7] = target: CYP2C9 relative to CYP2A6 (Homo sapiens (Human), UniProt P11712); assay: CYP2C9 Vivid blue substrate O-dealkylation inhibition; format: biochemical; conditions: human
[8] = target: CYP2C19 relative to CYP2A6 (Homo sapiens (Human), UniProt P33261); assay: CYP2C19 Vivid blue substrate O-dealkylation inhibition; format: biochemical; conditions: human
[9] = target: CYP2D6 relative to CYP2A6 (Homo sapiens (Human), UniProt P10635); assay: CYP2D6 Vivid blue substrate O-dealkylation inhibition; format: biochemical; conditions: human, recombinant CYP2D6 BACULOSOMES, pH 8, probe Vivid blue substrate (10 μM), O-dealkylation
human CYP2A6 [10] = target: T1, human CYP2A6; assay: CYP2A6 mediated coumarin 7-hydroxylation inhibition
[11] = recombinant CYP2C19 BACULOSOMES, pH 8, probe Vivid blue substrate (10 μM), O-dealkylation, read-out: 2C19/2A6 selectivity ratio (IC50 CYPX/IC50 CYP2A6)
[12] = read-out: 2D6/2A6 selectivity ratio (IC50 CYPX/IC50 CYP2A6)
[13] = insect cell microsomes expressing CYP2E1, 0.2M potassium phosphate buffer, mean of at least 3 determinations ± SD, read-out: IC50 ± SD 2E1
[14] = insect cell microsomes expressing CYP2B6, 0.2M potassium phosphate buffer, mean of at least 3 determinations ± SD, read-out: IC50 ± SD 2B6
[15] = recombinant CYP2B6 BACULOSOMES, pH 8, probe Vivid blue substrate (5 μM), O-dealkylation, read-out: 2B6/2A6 selectivity ratio (IC50 CYPX/IC50 CYP2A6)
[16] = pH 8, 2C9/2A6 selectivity ratio (IC50 CYPX/IC50 CYP2A6)
[17] = insect cell microsomes expressing CYP2C19, 0.2M potassium phosphate buffer, mean of at least 3 determinations ± SD, read-out: IC50 ± SD 2C19
[18] = insect cell microsomes expressing CYP2D6, 0.2M potassium phosphate buffer, mean of at least 3 determinations ± SD, read-out: IC50 ± SD 2D6

CYP2C19, sequence (P33261 whole entry): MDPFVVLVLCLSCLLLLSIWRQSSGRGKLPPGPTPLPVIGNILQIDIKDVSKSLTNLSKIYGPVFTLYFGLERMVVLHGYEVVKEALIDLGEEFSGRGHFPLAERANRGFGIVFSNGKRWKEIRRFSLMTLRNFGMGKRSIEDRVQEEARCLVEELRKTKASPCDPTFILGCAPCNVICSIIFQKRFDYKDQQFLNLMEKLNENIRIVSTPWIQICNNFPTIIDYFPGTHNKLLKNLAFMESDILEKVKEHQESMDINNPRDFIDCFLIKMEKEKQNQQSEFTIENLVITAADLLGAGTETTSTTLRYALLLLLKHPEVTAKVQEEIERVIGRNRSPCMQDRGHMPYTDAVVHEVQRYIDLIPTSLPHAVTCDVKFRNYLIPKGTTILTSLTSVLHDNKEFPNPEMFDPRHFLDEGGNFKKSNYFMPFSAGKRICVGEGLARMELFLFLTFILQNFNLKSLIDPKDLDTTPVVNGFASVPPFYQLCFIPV
CYP2C19 relative to CYP2A6, sequence (P33261 whole entry): as above
P450 2A6dH, sequence (P11509 other isoform, or with tags, fused parts or gaps 1-28 replaced by MAKKTS/ins HHHH behind 494): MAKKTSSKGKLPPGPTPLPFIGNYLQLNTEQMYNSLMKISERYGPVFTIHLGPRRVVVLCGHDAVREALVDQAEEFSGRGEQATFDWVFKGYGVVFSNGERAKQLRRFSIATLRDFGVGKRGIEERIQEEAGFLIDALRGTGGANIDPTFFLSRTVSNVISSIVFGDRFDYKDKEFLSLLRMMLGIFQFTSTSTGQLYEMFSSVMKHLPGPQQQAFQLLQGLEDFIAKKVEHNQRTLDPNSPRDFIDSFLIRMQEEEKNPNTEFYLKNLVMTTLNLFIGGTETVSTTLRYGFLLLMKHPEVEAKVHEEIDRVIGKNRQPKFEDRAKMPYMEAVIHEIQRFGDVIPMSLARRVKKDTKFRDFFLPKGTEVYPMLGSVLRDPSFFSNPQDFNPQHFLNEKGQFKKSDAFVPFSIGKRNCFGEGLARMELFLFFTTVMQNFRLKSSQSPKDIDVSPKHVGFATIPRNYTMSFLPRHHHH
CYP2D6, sequence (P10635 whole entry): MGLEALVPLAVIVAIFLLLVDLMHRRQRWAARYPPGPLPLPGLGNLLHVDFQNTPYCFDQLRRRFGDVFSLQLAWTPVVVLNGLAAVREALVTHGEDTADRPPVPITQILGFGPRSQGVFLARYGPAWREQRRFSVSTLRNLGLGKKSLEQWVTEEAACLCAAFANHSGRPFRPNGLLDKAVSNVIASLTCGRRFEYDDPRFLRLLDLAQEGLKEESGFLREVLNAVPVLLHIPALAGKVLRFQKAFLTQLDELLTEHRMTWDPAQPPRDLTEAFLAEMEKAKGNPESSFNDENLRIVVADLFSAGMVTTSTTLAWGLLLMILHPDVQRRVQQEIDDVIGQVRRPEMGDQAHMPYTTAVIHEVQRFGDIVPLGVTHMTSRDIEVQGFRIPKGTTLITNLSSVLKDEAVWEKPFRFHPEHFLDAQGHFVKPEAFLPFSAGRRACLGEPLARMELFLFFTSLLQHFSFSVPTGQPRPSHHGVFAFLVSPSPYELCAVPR
CYP2D6 relative to CYP2A6, sequence (P10635 whole entry): as above
CYP2C9, sequence (P11712 whole entry): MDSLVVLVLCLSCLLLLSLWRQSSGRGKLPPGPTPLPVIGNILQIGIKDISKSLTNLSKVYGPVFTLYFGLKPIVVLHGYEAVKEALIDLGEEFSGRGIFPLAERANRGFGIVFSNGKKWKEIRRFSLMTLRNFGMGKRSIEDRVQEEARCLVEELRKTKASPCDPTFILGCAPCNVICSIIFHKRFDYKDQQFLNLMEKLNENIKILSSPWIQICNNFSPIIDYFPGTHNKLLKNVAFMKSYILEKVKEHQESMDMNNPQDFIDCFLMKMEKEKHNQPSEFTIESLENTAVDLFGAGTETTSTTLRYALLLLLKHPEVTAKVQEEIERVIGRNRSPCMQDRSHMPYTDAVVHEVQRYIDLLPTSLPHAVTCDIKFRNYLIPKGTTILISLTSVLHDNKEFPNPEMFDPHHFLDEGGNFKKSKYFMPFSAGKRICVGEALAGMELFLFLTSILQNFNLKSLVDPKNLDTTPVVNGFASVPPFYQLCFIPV
CYP2C9 relative to CYP2A6, sequence (P11712 whole entry): as above
T1 sequence (P11509 whole entry): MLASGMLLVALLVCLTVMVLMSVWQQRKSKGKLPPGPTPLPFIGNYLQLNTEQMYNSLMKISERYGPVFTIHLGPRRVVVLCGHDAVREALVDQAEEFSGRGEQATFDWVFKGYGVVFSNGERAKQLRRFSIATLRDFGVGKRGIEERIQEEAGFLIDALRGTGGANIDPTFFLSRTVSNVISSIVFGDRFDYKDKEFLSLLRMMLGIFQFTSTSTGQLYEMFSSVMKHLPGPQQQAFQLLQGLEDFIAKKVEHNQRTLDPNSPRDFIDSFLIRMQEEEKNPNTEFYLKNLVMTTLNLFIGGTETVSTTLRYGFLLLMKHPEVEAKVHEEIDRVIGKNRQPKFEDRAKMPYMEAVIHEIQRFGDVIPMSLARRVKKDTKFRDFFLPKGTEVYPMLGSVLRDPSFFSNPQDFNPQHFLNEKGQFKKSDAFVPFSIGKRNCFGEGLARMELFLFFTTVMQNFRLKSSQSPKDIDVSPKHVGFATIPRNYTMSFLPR
CYP3A4 relative to CYP2A6, sequence (P08684 whole entry): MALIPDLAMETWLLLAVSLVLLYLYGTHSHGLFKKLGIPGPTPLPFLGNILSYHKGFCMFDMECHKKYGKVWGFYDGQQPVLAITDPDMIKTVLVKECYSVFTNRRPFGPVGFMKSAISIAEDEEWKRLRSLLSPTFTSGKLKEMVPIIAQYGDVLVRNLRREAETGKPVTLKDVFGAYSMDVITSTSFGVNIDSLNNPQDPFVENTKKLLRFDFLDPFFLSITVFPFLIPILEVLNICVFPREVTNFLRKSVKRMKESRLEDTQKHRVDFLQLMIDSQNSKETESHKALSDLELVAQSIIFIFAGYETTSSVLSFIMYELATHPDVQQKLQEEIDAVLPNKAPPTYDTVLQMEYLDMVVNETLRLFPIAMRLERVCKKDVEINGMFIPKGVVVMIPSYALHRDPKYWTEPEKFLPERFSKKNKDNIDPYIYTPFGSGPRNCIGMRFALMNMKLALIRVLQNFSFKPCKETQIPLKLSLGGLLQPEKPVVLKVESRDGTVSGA
CYP2E1, sequence (P05181 whole entry): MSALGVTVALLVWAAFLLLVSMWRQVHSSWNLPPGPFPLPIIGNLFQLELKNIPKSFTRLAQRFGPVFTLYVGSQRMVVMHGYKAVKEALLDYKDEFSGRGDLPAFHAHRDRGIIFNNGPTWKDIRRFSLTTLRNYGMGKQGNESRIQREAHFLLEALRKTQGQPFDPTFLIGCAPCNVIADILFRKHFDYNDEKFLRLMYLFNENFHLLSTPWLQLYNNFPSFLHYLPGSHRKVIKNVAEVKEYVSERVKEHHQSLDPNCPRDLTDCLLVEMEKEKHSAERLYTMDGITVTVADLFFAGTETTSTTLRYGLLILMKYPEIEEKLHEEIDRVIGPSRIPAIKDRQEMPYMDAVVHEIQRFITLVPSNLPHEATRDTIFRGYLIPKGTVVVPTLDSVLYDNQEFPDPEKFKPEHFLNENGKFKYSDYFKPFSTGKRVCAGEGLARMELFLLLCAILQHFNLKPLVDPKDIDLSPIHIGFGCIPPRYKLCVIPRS
CYP2E1 relative to CYP2A6, sequence (P05181 whole entry): as above
CYP3A4, sequence (P08684 whole entry): as the sequence (P08684 whole entry) above

SMILES | IC50 (CYP3A4) | IC50 (human CYP2A6 [1]) | binding type (P450 2A6dH) | λmax (P450 2A6dH) | λmin (P450 2A6dH) | half-life at 40 μM [2] | half-life at 40 μM [3] | selectivity ratio at 30 min [4] | selectivity ratio at 40 min [8, 11] | selectivity ratio at 40 min [9, 12] | IC50 (human CYP2A6 [1]; human, pH 7.5) | IC50 (CYP2E1; [13]) | IC50 (CYP2B6; [14]) | selectivity ratio at 40 min [6, 15] | IC50 (CYP2C19; [17]) | IC50 (CYP2D6; [18]) | other results
NCc1ccc(-c2cccnc2)o1 [Compound 2a] | 47.1 ± 18.1 µM | 0.27 ± 0.02 µM | Type II | 428 nm | 409 nm | 37 min | 37 min |  |  |  |  |  |  |  |  |  | 2E1/2A6 selectivity ratio (IC50 CYPX/IC50 CYP2A6) (CYP2E1): 637; IC50 (CYP2E1; Table 4, unit inferred, read-out: 2E1 IC50 ± SD): 172 ± 52 µM; 2B6/2A6 selectivity ratio (IC50 CYPX/IC50 CYP2A6) (CYP2B6): 707; IC50 (CYP2B6; Table 4, unit inferred, read-out: 2B6 IC50 ± SD): 191 ± 24 µM; IC50 (CYP2C9; Table 4, unit inferred, read-out: 2C9 IC50 ± SD): 11.7 ± 2.2 µM; IC50 (CYP2C19; Table 4, unit inferred, read-out: 2C19 IC50 ± SD): 22 ± 1.6 µM; 2D6/2A6 selectivity ratio (IC50 CYPX/IC50 CYP2A6) (CYP2D6): 42; IC50 (CYP2D6; Table 4, unit inferred, read-out: 2D6 IC50 ± SD): 11.3 ± 2.6 µM
Cc1ccsc1-c1cccnc1 [Compound 4] |  |  |  |  |  | 41 min | 32 min |  |  |  |  |  |  |  |  |  | 
Cn1cnc(-c2cccnc2)c1 [Compound 5] | 262 ± 63 µM | 0.75 ± 0.1 µM | Type II | 429 nm | 409 nm | 481 min |  | 349 | 163 | 272 | 0.748 ± 0.1 µM |  |  |  |  |  | selectivity ratio at 40 min ([5]; human, pH 8): 5; selectivity ratio at 40 min ([6]; pH 8): 195; selectivity ratio at 40 min ([7]; recombinant CYP2C9 BACULOSOMES, pH 8, probe Vivid blue substrate (10 μM), O-dealkylation, read-out: 2C9/2A6 selectivity ratio (IC50 CYPX/IC50 CYP2A6)): 106
c1cncc(-c2ccc(CNCc3ccc(-c4cccnc4)s3)s2)c1 [Compound 38b, bis((5-(pyridin-3-yl)thiophen-2-yl)methyl)amine] |  |  |  |  |  |  |  | > 54 | 0.03 | 1.7 |  | 0.86 ± 0.24 µM | 9 ± 0.8 µM | 1.2 | 0.21 ± 0.03 µM | 12.9 ± 1.9 µM | selectivity ratio at 40 min ([5]; recombinant CYP2E1 BACULOSOMES, pH 8, probe Vivid blue substrate (10 μM), O-dealkylation, human CYP2E1 versus human CYP2A6, read-out: Selectivity ratio (IC50 CYPX/IC50 CYP2A6) 2E1/2A6): 0.12; IC50 (CYP2C9; human, pH 8): 0.71 ± 0.75 µM; selectivity ratio [7, 16]: 0.1; selectivity ratio ([7]; pH 8, Selectivity ratio (IC50 CYPX/IC50 CYP2A6) 2C9/2A6): 0.1; Ki (human CYP2A6 [10]; coumarin 7-hydroxylation, apparent Ki from IC50 by Cheng-Prusoff): 1.2 ± 0.2 µM; IC50 (human CYP2A6 [10]; read-out: IC50 ± SD 2A6, insect cell microsomes expressing CYP2A6, 0.1M Tris buffer, mean of at least 3 determinations ± SD): 7.4 ± 1.3 µM; fold decrease of CYP2A6 inhibitor potency (human CYP2A6 [10]; relative to compound 38a): 60 fold
NCc1ccc(-c2cccnc2)o1 [Compound 39a, (5-(Pyridin-3-yl)furan-2-yl)methanamine] |  |  | type 2 |  |  |  |  | 174 |  | 41 | 0.27 ± 0.02 µM | 172 ± 52 µM | 191 ± 24 µM | 707 | 22 ± 1.6 µM | 11.3 ± 2.6 µM | selectivity ratio at 40 min ([5]; human, recombinant CYP2E1 BACULOSOMES, pH 8, probe Vivid blue substrate (10 μM), O-dealkylation, read-out: 2E1/2A6 selectivity ratio (IC50 CYPX/IC50 CYP2A6)): 637; IC50 (CYP2C9; insect cell microsomes expressing CYP2C9, 0.2M potassium phosphate buffer, mean of at least 3 determinations ± SD, read-out: IC50 ± SD 2C9): 11.7 ± 2.2 µM; selectivity ratio at 40 min [7, 16]: 41; selectivity ratio at 40 min ([7]; pH 8, human CYP2C9 versus human CYP2A6, read-out: Selectivity ratio (IC50 CYPX/IC50 CYP2A6) 2C9/2A6): 41; selectivity ratio at 40 min ([8]; pH 8, 2C19/2A6 selectivity ratio (IC50 CYPX/IC50 CYP2A6)): 82; selectivity ratio at 40 min ([8]; pH 8, human CYP2C19 versus human CYP2A6, read-out: Selectivity ratio (IC50 CYPX/IC50 CYP2A6) 2C19/2A6): 82; selectivity ratio at 40 min ([9]; human CYP2D6 versus human CYP2A6, read-out: Selectivity ratio (IC50 CYPX/IC50 CYP2A6) 2D6/2A6): 41; Ki (human CYP2A6 [1]; human, pH 7.5): 0.04 ± 0.004 µM
